{
  "source": "paper PMC9154192",
  "about": "(PLoS Biology, 2022)",
  "key": {"[1]": {"test_system": "GFP-expressing M. tuberculosis", "assay_type": "cell-based, Mycobacterium tuberculosis", "conditions": "1 μg/ml"}, "[2]": {"assay_type": "cell-based"}, "[3]": {"conditions": "TA100, 4.88 μg/plate, absence of S9 mix"}, "[4]": {"conditions": "TA100, 4.88 μg/plate, presence of S9 mix"}, "[5]": {"conditions": "TA100, 78.1 μg/plate, absence of S9 mix"}, "[6]": {"conditions": "TA100, 78.1 μg/plate, presence of S9 mix"}, "[7]": {"conditions": "TA100, 313 μg/plate, absence of S9 mix"}, "[8]": {"conditions": "TA100, 313 μg/plate, presence of S9 mix"}, "[9]": {"conditions": "TA1535, 4.88 μg/plate, absence of S9 mix"}, "[10]": {"conditions": "TA1535, 4.88 μg/plate, presence of S9 mix"}, "[11]": {"conditions": "TA1535, 78.1 μg/plate, absence of S9 mix"}, "[12]": {"conditions": "TA1535, 78.1 μg/plate, presence of S9 mix"}, "[13]": {"conditions": "TA1535, 313 μg/plate, absence of S9 mix"}, "[14]": {"conditions": "TA1535, 313 μg/plate, presence of S9 mix"}, "[15]": {"conditions": "TA1537, 4.88 μg/plate, absence of S9 mix"}, "[16]": {"conditions": "TA1537, 4.88 μg/plate, presence of S9 mix"}, "[17]": {"conditions": "TA1537, 78.1 μg/plate, absence of S9 mix"}, "[18]": {"conditions": "TA1537, 78.1 μg/plate, presence of S9 mix"}, "[19]": {"conditions": "TA1537, 313 μg/plate, absence of S9 mix"}, "[20]": {"conditions": "TA1537, 313 μg/plate, presence of S9 mix"}, "[21]": {"conditions": "WP2uvrA (pKM101), 4.88 μg/plate, absence of S9 mix"}, "[22]": {"conditions": "WP2uvrA (pKM101), 4.88 μg/plate, presence of S9 mix"}, "[23]": {"conditions": "WP2uvrA (pKM101), 78.1 μg/plate, absence of S9 mix"}, "[24]": {"conditions": "WP2uvrA (pKM101), 78.1 μg/plate, presence of S9 mix"}, "[25]": {"conditions": "WP2uvrA (pKM101), 313 μg/plate, absence of S9 mix"}},
  "note": "Where “and” joins values, the source holds several entries; their conditions need not be identical. Equal entries are not always repeated. Where two headings read alike, the source gives them in different places.",
  "data": [
    {"smiles": "CCCCOc1ccc2cc(CN3C(=O)CC[C@H]3C(=O)OC)c3cc(OC)c(OC)cc3c2c1", "note": "[PP2S, Methyl (S)-1-((3-butoxy-6,7-dimethoxyphenanthren-9-yl)methyl)-5-oxopyrrolidine-2-carboxylate]", "values": [
      {"measurement": "green signal of GFP-expressing M. tuberculosis in infected cells", "setting": "[1]", "result": "decrease in green signal"},
      {"measurement": "Individual revertant colony counts", "setting": "[2]; [3]", "result": "77 colonies per plate and 71 colonies per plate"},
      {"measurement": "Mean revertant colonies", "setting": "[2]; [3]", "result": 74, "unit": "colonies per plate"},
      {"measurement": "Individual revertant colony counts", "setting": "[2]; [4]", "result": "116 colonies per plate and 111 colonies per plate"},
      {"measurement": "Mean revertant colonies", "setting": "[2]; [4]", "result": 114, "unit": "colonies per plate"},
      {"measurement": "Individual revertant colony counts", "setting": "[2]; [5]", "result": "78 colonies per plate and 85 colonies per plate"},
      {"measurement": "Mean revertant colonies", "setting": "[2]; [5]", "result": 82, "unit": "colonies per plate"},
      {"measurement": "Individual revertant colony counts", "setting": "[2]; [6]", "result": "111 colonies per plate and 107 colonies per plate"},
      {"measurement": "Mean revertant colonies", "setting": "[2]; [6]", "result": 109, "unit": "colonies per plate"},
      {"measurement": "Individual revertant colony counts", "setting": "[2]; [7]", "result": "98 colonies per plate and 95 colonies per plate"},
      {"measurement": "Mean revertant colonies", "setting": "[2]; [7]", "result": 97, "unit": "colonies per plate"},
      {"measurement": "Individual revertant colony counts", "setting": "[2]; [8]", "result": "111 colonies per plate and 107 colonies per plate"},
      {"measurement": "Mean revertant colonies", "setting": "[2]; [8]", "result": 109, "unit": "colonies per plate"},
      {"measurement": "Individual revertant colony counts", "setting": "[2]; [9]", "result": "18 colonies per plate and 19 colonies per plate"},
      {"measurement": "Mean revertant colonies", "setting": "[2]; [9]", "result": 19, "unit": "colonies per plate"},
      {"measurement": "Individual revertant colony counts", "setting": "[2]; [10]", "result": "10 colonies per plate and 12 colonies per plate"},
      {"measurement": "Mean revertant colonies", "setting": "[2]; [10]", "result": 11, "unit": "colonies per plate"},
      {"measurement": "Individual revertant colony counts", "setting": "[2]; [11]", "result": "18 colonies per plate and 19 colonies per plate"},
      {"measurement": "Mean revertant colonies", "setting": "[2]; [11]", "result": 19, "unit": "colonies per plate"},
      {"measurement": "Individual revertant colony counts", "setting": "[2]; [12]", "result": "17 colonies per plate and 15 colonies per plate"},
      {"measurement": "Mean revertant colonies", "setting": "[2]; [12]", "result": 16, "unit": "colonies per plate"},
      {"measurement": "Individual revertant colony counts", "setting": "[2]; [13]", "result": "15 colonies per plate and 17 colonies per plate"},
      {"measurement": "Mean revertant colonies", "setting": "[2]; [13]", "result": 16, "unit": "colonies per plate"},
      {"measurement": "Individual revertant colony counts", "setting": "[2]; [14]", "result": "16 colonies per plate and 15 colonies per plate"},
      {"measurement": "Mean revertant colonies", "setting": "[2]; [14]", "result": 16, "unit": "colonies per plate"},
      {"measurement": "Individual revertant colony counts", "setting": "[2]; [15]", "result": "10 colonies per plate and 11 colonies per plate"},
      {"measurement": "Mean revertant colonies", "setting": "[2]; [15]", "result": 11, "unit": "colonies per plate"},
      {"measurement": "Individual revertant colony counts", "setting": "[2]; [16]", "result": "16 colonies per plate and 14 colonies per plate"},
      {"measurement": "Mean revertant colonies", "setting": "[2]; [16]", "result": 15, "unit": "colonies per plate"},
      {"measurement": "Individual revertant colony counts", "setting": "[2]; [17]", "result": "11 colonies per plate and 10 colonies per plate"},
      {"measurement": "Mean revertant colonies", "setting": "[2]; [17]", "result": 11, "unit": "colonies per plate"},
      {"measurement": "Individual revertant colony counts", "setting": "[2]; [18]", "result": "18 colonies per plate and 17 colonies per plate"},
      {"measurement": "Mean revertant colonies", "setting": "[2]; [18]", "result": 18, "unit": "colonies per plate"},
      {"measurement": "Individual revertant colony counts", "setting": "[2]; [19]", "result": "9 colonies per plate and 8 colonies per plate"},
      {"measurement": "Mean revertant colonies", "setting": "[2]; [19]", "result": 9, "unit": "colonies per plate"},
      {"measurement": "Individual revertant colony counts", "setting": "[2]; [20]", "result": "18 colonies per plate and 19 colonies per plate"},
      {"measurement": "Mean revertant colonies", "setting": "[2]; [20]", "result": 19, "unit": "colonies per plate"},
      {"measurement": "Individual revertant colony counts", "setting": "[2]; [21]", "result": "92 colonies per plate and 86 colonies per plate"},
      {"measurement": "Mean revertant colonies", "setting": "[2]; [21]", "result": 89, "unit": "colonies per plate"},
      {"measurement": "Individual revertant colony counts", "setting": "[2]; [22]", "result": "149 colonies per plate and 156 colonies per plate"},
      {"measurement": "Mean revertant colonies", "setting": "[2]; [22]", "result": 153, "unit": "colonies per plate"},
      {"measurement": "Individual revertant colony counts", "setting": "[2]; [23]", "result": "87 colonies per plate and 94 colonies per plate"},
      {"measurement": "Mean revertant colonies", "setting": "[2]; [23]", "result": 91, "unit": "colonies per plate"},
      {"measurement": "Individual revertant colony counts", "setting": "[2]; [24]", "result": "156 colonies per plate and 167 colonies per plate"},
      {"measurement": "Mean revertant colonies", "setting": "[2]; [24]", "result": 162, "unit": "colonies per plate"},
      {"measurement": "Individual revertant colony counts", "setting": "[2]; [25]", "result": "91 colonies per plate and 93 colonies per plate"},
      {"measurement": "Mean revertant colonies", "setting": "[2]; [25]", "result": 92, "unit": "colonies per plate"},
      {"measurement": "Individual revertant colony counts", "setting": "[2]; WP2uvrA (pKM101), 313 μg/plate, presence of S9 mix", "result": "162 colonies per plate and 165 colonies per plate"},
      {"measurement": "genotoxicity", "setting": "[2]; bacterial reverse mutation test", "result": "did not show genotoxicity"}
    ]}
  ]
}
